Here are results for ten compounds from PMC4519900 (International Journal of Molecular Sciences, 2015).

Read-outs that look alike come from different tables or passages of the source.

By IC50 is commonly meant the point on the concentration scale where inhibition reaches its midpoint.

The target of assay [1] is T1, A. suum QFR (complex II) (Ascaris suum, UniProt O44074+P92506+P92507).
T1 construct: from tissue; host or cells: adult Ascaris suum muscle, mitochondrial fraction
The settings on record: read-out: IC50 for A. suum QFR; cited from earlier work.

The next assay deals with bovine SQR. Set-up: method as in PMID 3209470, PMID 12515859, PMID 19242645. Particulars: cited from earlier work.
Assay [2] concerns the target T1, A. suum QFR (complex II). The assay can be described thus: SQR activity assay of A. suum complex II (QFR) in mitochondrial fraction, UQ2 consumption at 278 nm. The assay is classed as biochemical. Here is the method:
(§1) The CP buffer containing the prepared mitochondrial fraction was replaced with 50 mM Tris–HCl buffer, pH 7.4 containing 1 mM disodium malonate, 210 mM mannitol, 10 mM sucrose, and 1 mM EDTA. Final concentrations of the A. suum and porcine mitochondria (quantified protein) were adjusted to 10 and 20 mg/mL, respectively. Mitochondrial fractions were separated in 50 μL aliquots, frozen by liquid nitrogen and stored at 193 K until use. Prior to assay, the mitochondrial suspensions were thawed on ice and SQR was reactivated by incubation at 298 K for 30 min in equal volume of 50 mM potassium phosphate buffer pH 7.4, containing 337 μM disodium malonate. SQR assay buffer composed of 50 mM potassium phosphate buffer pH 7.4, 0.1% SML, 2 mM potassium cyanide, and 60 μM of 2,3-dimethoxy-5-methyl-6-geranyl-1,4-benzoquinone (UQ2) was pre-equilibrated at 298 K for 20 min. The assay mixture was constituted by adding 15 μg (A. suum) or 30 μg (porcine) of reactivated mitochondrial fraction to the assay buffer and incubated for 3 min for background activity measurements. The SQR activity was initiated by the addition of 10 mM disodium succinate, and recorded as rate of UQ2 consumption, monitored at 278 nm (ε278 = 15 mM^−1·cm^−1) for three minutes in 1 mL quartz cuvettes with a Shimadzu UV-3000 dual wavelength spectrophotometer (Shimazu, Kyoto, Japan). Inhibition of SQR activities were assayed in the presence of varying concentration of inhibitors (diluted in DMSO) and the IC50s calculated as the concentration of inhibitor that caused 50% decrease in SQR activity relative to control (DMSO).

The next assay addresses T2, porcine SQR (complex II) (Sus scrofa, UniProt A5GZW8+D0VWV4+Q007T0).
T2 construct: from tissue; host or cells: porcine heart muscle, mitochondrial fraction
The assay can be described thus: SQR activity assay of porcine complex II in mitochondrial fraction, UQ2 consumption at 278 nm. The assay is classed as biochemical. The method, then:
as §1

The mark [3] stands for this setting: porcine complex II, SQR assay, 298 K, pH 7.4, read-out: IC50 (SQR).

T1 sequence (Q33862 19-645): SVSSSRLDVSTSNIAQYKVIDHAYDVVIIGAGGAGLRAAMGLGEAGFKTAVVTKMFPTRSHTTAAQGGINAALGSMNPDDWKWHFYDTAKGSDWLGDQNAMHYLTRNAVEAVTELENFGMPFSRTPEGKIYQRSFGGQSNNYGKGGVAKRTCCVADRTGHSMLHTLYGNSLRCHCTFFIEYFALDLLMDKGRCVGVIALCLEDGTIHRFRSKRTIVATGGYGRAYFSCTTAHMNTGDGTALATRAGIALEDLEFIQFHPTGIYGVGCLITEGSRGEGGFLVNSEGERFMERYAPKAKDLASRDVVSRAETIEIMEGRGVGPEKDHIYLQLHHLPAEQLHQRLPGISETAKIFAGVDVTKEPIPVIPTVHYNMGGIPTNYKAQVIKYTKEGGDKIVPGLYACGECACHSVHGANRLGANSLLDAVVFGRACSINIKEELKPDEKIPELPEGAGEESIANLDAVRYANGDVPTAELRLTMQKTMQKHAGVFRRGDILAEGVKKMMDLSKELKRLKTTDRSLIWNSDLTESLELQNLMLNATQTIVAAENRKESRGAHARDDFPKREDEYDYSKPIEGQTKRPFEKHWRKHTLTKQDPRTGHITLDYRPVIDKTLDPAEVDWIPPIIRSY
T1 sequence (P92507 26-156): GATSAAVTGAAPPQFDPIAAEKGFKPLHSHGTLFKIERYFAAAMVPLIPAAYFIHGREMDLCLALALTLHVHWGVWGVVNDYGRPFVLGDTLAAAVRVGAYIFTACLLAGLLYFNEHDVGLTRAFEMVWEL
T1 sequence (P92506 32-188): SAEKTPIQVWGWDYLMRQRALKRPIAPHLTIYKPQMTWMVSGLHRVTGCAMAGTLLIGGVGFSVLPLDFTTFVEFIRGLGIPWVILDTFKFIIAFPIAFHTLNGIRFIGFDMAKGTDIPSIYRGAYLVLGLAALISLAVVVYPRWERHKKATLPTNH
T1 sequence (O44074 22-282): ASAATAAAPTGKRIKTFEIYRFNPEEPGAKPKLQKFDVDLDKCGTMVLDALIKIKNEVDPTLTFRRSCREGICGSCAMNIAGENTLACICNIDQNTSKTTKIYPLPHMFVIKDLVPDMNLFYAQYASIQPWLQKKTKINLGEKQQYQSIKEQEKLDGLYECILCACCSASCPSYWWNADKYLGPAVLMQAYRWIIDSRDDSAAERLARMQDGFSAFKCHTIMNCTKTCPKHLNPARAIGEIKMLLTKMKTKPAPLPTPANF
T2 sequence (Q007T0 29-280): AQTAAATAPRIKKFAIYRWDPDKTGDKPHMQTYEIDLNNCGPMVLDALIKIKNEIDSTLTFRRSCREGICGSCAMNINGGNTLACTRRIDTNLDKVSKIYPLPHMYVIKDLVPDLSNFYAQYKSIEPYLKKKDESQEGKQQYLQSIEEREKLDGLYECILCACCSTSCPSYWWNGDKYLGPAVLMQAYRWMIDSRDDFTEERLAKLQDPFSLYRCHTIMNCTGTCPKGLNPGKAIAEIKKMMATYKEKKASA
T2 sequence (D0VWV4 30-169): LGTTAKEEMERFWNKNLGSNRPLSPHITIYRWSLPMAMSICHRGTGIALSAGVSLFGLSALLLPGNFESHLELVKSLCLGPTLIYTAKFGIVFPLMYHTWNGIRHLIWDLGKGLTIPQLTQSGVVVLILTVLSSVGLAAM
T2 sequence (A5GZW8 57-159 limits assumed): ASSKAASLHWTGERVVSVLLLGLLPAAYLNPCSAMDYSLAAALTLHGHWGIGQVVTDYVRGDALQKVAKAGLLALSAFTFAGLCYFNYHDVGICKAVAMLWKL
T2 sequence (Q0QF01 43-664 partner): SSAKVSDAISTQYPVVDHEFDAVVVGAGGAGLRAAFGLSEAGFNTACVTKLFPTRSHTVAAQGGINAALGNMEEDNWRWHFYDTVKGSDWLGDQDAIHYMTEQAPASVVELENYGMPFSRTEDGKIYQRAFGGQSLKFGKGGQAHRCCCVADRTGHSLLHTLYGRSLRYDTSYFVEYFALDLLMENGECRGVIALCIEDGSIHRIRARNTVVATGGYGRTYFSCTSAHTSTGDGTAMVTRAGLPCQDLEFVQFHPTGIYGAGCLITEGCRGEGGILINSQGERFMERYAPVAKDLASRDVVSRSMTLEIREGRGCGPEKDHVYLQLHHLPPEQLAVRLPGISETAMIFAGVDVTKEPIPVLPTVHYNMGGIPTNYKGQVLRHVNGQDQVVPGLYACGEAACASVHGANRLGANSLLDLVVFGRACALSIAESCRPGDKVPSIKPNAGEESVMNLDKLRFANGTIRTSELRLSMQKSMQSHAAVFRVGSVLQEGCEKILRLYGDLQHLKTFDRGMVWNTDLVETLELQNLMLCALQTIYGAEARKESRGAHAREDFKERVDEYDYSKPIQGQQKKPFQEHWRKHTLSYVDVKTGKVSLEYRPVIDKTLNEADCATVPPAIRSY

For the compound `COc1[nH]c(=O)c(C(=O)[C@@H](C)C[C@H](C)[C@@H](Cl)CCl)c(O)c1OC` [Atpenin A5], the IC50 was 12 nM at A. suum QFR (complex II) [1] and 3.6 nM in the assay on bovine SQR.

Turning to `O=C(Nc1cccc(Oc2ccccc2)c1)c1ccccc1C(F)(F)F` [derivative 4], the IC50 on A. suum QFR (complex II) [2] was found to be 79.4 nM; at porcine SQR (complex II) (setting [3]), 16200 nM.

Turning to `CC(C)Oc1cccc(NC(=O)c2ccccc2C(F)(F)F)c1` [flutolanil, N-[3-(isopropyloxy)phenyl]-2-(trifluoromethyl)benzamide, reference compound], the IC50 against A. suum QFR (complex II) [2] is 58.1 nM; on A. suum QFR (complex II) [2] (IC50 (QFR), A. suum complex II, SQR assay, 298 K, pH 7.4), 58 nM; on porcine SQR (complex II) it was 45900 nM.

Regarding `CC(C)Oc1cccc(NC(=O)c2ccccc2I)c1` [derivative 1], the IC50 worked out at 72.3 nM on A. suum QFR (complex II) [2] and 6430 nM at porcine SQR (complex II) (setting [3]).

As to `CN(C)Cc1cccc(NC(=O)c2ccccc2C(F)(F)F)c1` [derivative 3], at A. suum QFR (complex II) [2], the IC50 came out at 3420 nM and the “increase of IC50 for A. suum QFR relative to flutolanil” value came to 59 fold. In addition, the IC50 at porcine SQR (complex II) (setting [3]) was 256000 nM. The “increase of IC50 for porcine SQR relative to flutolanil” value on porcine SQR (complex II) (versus flutolanil) was 6 fold.

As to `O=C(Nc1cccc(-c2ccccc2)c1)c1ccccc1C(F)(F)F` [derivative 5], the IC50 is 24.5 nM against A. suum QFR (complex II) [2] and 8610 nM at porcine SQR (complex II) (setting [3]).

In the case of `Cc1ccccc1C(=O)Nc1cccc(OC(C)C)c1` [derivative 2], the results for the IC50 against A. suum QFR (complex II) [2] and on porcine SQR (complex II) (setting [3]) were 515 nM and 90000 nM, respectively.

In turn, `O=C(NCc1ccc(Cl)cc1Cl)c1ccccc1C(F)(F)F` [NN28] came in with an IC50 against A. suum QFR (complex II) [2] of 28 nM. On porcine SQR (complex II) (porcine complex II, SQR assay), the “IC10 against porcine SQR” value was greater than 90000 nM.

On to `CC(C)(C)c1ccc(CNC(=O)c2ccccc2C(F)(F)F)cc1` [NN23], for which the IC50 on A. suum QFR (complex II) [2] stood at 5.5 nM; at porcine SQR (complex II) (setting [3]), 111000 nM. Also, the “selectivity index (IC50 porcine SQR / IC50 A. suum QFR)” value on A. suum QFR (complex II) [2] (A. suum QFR versus porcine SQR) is given as “about 20,000 folds”.

On to `O=C(Nc1cccc(Oc2c(F)c(F)c(F)c(F)c2F)c1)c1ccccc1C(F)(F)F` [derivative 6], for which the figures for the IC50 on A. suum QFR (complex II) [2] and on porcine SQR (complex II) (setting [3]) were 330 nM and 236000 nM, respectively.
